Measured values published in US9476017B2, “Compositions and methods for cleaning, disinfecting, and sanitizing that are effluent neutral” (Diversey, Inc, priority 2012, dated 2016).
Read-outs that look alike come from different tables or passages of the source.

Tests used:
[1] = Procedure: Formulation B was combined with three sanitizing additives hydrogen peroxide (i.e., “peroxide”), peracetic acid (PAA) and chlorine dioxide. Testing was conducted at 80° C. to simulate CIP tank conditions. Ferment soil was added to the tests to further simulate real conditions.
fermentative wild yeasts = assay: Efficiency against fermentative wild yeasts; format: cell-based; conditions: all temperatures, 20 minutes or longer
Procedure: (§1) Testing was done according to test protocols EN 1276 and EN 1650. Formulation B and Formulation D (a peracetic acid-based formulation) were tested separately and in combination. Formulation B was also tested in combination with hydrogen peroxide. Tests were run at 20°, 40° C. and 60° C. in the presence of 1% ferment soil at contact times of 10, 20 and 30 minutes. Kill rates are expressed as log reductions.
At 20° C. and 40° C., 0.28% peroxide […] was ineffective on Lactobacilli. The higher kill rate at 60° C. is mainly due to temperature.

Lactobacillus brevis = assay: Efficiency against Lactobacillus brevis, EN 1276; format: cell-based
Procedure: as §1

Saccharomyces cerevisiae = assay: Yeast growth test (Example 6); format: cell-based; conditions: supplement at concentrations above 10 ppm; 30° C.; compared to control without supplements
Procedure: These experiments were used to investigate whether potential residues of cleaning formulations described herein have any impact on the growth or metabolism of a fermentative yeast cell. Saccharomyces cerevisiae was selected as a typical member of fermenting yeasts. Malt extract agar tubes with an angular surface were used to grow starter cultures. Two globules that were covered with Saccaromyces cerevisiae (from a freeze culture collection DSM 1333) were streaked onto an agar surface and incubated at 30° C. for 3 days. Yeast colonies were grown, transferred to liquid growth media and incubated for 15-20 hours at 30° C. A second transfer was conducted into fresh liquid medium. The grown medium was transferred into closed, sterile tubes and centrifuged for 20 minutes at 8000 G. The liquid was decanted and the pellets collected in 10 mL of sterile Ringer solution. A Thoma Hemocytometer was prepared. Cells of 4 squares across were counted. Counted numbers from 4 squares were averaged and cell concentrations were calculated. The concentration of cells in the original mixture=number of cells counted*10^6=cells/mL. Dilutions were made to reach final cell concentration of 1×10^6/mL in culture medium. […] Start extinction was measured at 578 nm with help of a spectrophotometer. […] Every 1 to 2 hours samples were taken and extinctions were measured. […] The difference ∂ of extinction to start was calculated. […]

SMILES: CC(=O)OO [Peracetic acid, peracetic acid]
- stability ([1]; in Formulation B and ferment soil, versus high alkaline solutions): better stability
- half life ([1]; in the presence of Formulation B, 80° C., ferment soil): > 30 min
- effectiveness (fermentative wild yeasts; 0.15% (225 ppm PAA)): very effective
- effectiveness (fermentative wild yeasts; 0.3% (450 ppm)): very effective
- effectiveness (Lactobacillus brevis; 0.3% (450 ppm), all temperatures, 20 minutes or longer): very effective

SMILES: [O][Cl+][O-] [Chlorine dioxide, chlorine dioxide]
- stability ([1]; 10 ppm, 80° C., ferment soil): very unstable

SMILES: [Na+].[OH-] [Caustic Soda, sodium hydroxide]
- S. cerevisiae cell growth (Saccharomyces cerevisiae): significantly decreased or even inhibited

SMILES: OO [hydrogen peroxide]
- effectiveness (Lactobacillus brevis; 0.28% (1000 ppm), at 20° C. and 40° C.): ineffective
- effectiveness (Lactobacillus brevis; 1.4% (5000 ppm), at 40° C. and 20 minute contact times): became effective
